In paper PMC9698773, “Design, Synthesis, Molecular Modeling, and Anticancer Evaluation of New VEGFR-2 Inhibitors Based on the Indolin-2-One Scaffold” (Pharmaceuticals, 2022):

How the values were obtained:
HepG2 cell line = assay: MTT cytotoxicity assay, HepG2; assay type: cell-based, human; details: mean ± SD of three experiments
Protocol: (§1) The cytotoxic activities against breast MCF-7 and liver HepG2 cancer cell lines for all the synthesized compounds 3a,b–17a,b were evaluated by MTT-based cytotoxicity assay. Sunitinib was selected as a reference standard in this study, and the results are presented as IC50 in Table 1.
(§2) The anticancer activities of the target compounds 3a,b–17a,b were quantitatively assessed using the MTT protocol against the MCF-7 and HepG2 cell lines, as described in the Supplementary Materials. […]
(§3) 4.2. Biological investigation
(§4) 4.2.1. In vitro cytotoxic activity assay
(§5) Citation: Abdelgawad, M.A.; Cell Line cells were obtained from the American Type Culture Collection. The cells Hayallah A.M.; Bukhari S.N.A.; were cultured using DMEM (Invitrogen/Life Technologies) supplemented with 10% FBS Musa A.; Elmowafy M.; (Hyclone,), 10 ug/ml of insulin (Sigma), and 1% penicillin‐streptomycin. All of the other Abdel‐Rahman, H.M.; chemicals and reagents were from Sigma or Invitrogen. Plate cells (cells density 1.2 – 1.8 Abd El‐Gaber, M.K. Design, × 10,000 cells/well) in a volume of 100μl complete growth medium + 100 μl of the tested Synthesis, Molecular Modeling, and compound per well in a 96‐well plate for 24 hours before the MTT assay. The tested com‐ Anticancer Evaluation of New pounds were dissolved in DMSO just before the test.
(§6) VEGFR‐2 Inhibitors Based on the Indolin‐2‐One Scaffold. 4.2.1.1. Cell culture protocol
(§7) Pharmaceuticals 2022, 15, x. The culture medium was removed to a centrifuge tube. The cell layer was briefly https://doi.org/10.3390/xxxxx rinsed with 5 mL of 0.25% (w/v) Trypsin and 3 mL of 0.53 mM EDTA solution to remove Academic Editor(s): Mary J. Meegan all traces of serum which contains Trypsin inhibitor. Next, 2.0 to 3.0 ml of Trypsin EDTA Received: 18 October 2022 solution was added to the flask and cells were observed under an inverted microscope Accepted: 9 November 2022 until the cell layer was dispersed (usually within 5 to 15 minutes). Then, 6.0 to 8.0 mL of Published: 14 November 2022 complete growth medium was added and cells aspirated by gently pipetting. The cell suspension was transferred to the centrifuge tube with the medium and cells from step 1, Publisher’s Note: MDPI stays neu‐and centrifuged at approximately 125 xg for 5 to 10 minutes. The supernatant was dis‐ tral with regard to jurisdictional carded and the cell pellet was suspended in fresh growth medium. Appropriate aliquots claims in published maps and institu‐ of the cell suspension were added to new culture vessels and incubated at 37°C for 24 hrs. tional affiliations. After treatment of cells with the serial concentrations of the compound to be tested, incu‐ bation was carried out for 48 h at 37 °C. The plates were examined under an inverted mi‐ croscope and proceeded for the MTT assay […]
(§8) Submitted for possible open access 4.2.1.2. […]
(§9) HepG‐2) were used in this test. At first, the cell lines were cultured in RPMI‐1640 medium Pharmaceuticals 2022, 15, x. https://doi.org/10.3390/xxxxx. www.mdpi.com/journal/pharmaceuticals […]
(§10) Pharmaceuticals 2022, 15, x FOR PEER REVIEW 2 of 22 with 10% fetal bovine serum. Antibiotics (100 units/ml penicillin and100 μg/ml strepto‐ mycin) were added at 37 °C in a 5% CO2 incubator. The cell lines were seeded in a 96‐well plate at a density of 1.0 x 10^4 cells / well at 37 °C for 48 h under 5% CO2. After incubation, the cells were treated with different concentrations of the synthesized compounds and incubated for 24 h. After 24 h of drug treatment, 20 μl of MTT solution (5mg/ml) was added and incubated for 4 h. 100 μl of dimethyl sulfoxide (DMSO) was added into each well to dissolve the formed purple formazan. The colored solution was measured and recorded at an absorbance of 570 nm using a plate reader (EXL 800, USA). The relative cell viability was calculated in percentage as (A570 of treated samples/A570 of untreated sam‐ ple) X 100. The half maximal inhibitory concentration (IC50) values were presented using […]

MCF-7 cell line = assay: MTT cytotoxicity assay, MCF-7; assay type: cell-based, human; details: for IC50: Homo sapiens, MCF7, MTT assay, mean ± SD of three experiments; for fold more potent than sunitinib, MCF-7: ratio of IC50 to sunitinib
Protocol: as §1, §2, §3, §4, §5, §6, §7, §8, §9, §10

VEGFR-2 = VEGFR-2 (Homo sapiens, UniProt P35968); assay: In vitro VEGFR-2 kinase inhibitory assay (VEGFR2 (KDR) Kinase Assay Kit)
Chain of VEGFR-2 (P35968 20-1356): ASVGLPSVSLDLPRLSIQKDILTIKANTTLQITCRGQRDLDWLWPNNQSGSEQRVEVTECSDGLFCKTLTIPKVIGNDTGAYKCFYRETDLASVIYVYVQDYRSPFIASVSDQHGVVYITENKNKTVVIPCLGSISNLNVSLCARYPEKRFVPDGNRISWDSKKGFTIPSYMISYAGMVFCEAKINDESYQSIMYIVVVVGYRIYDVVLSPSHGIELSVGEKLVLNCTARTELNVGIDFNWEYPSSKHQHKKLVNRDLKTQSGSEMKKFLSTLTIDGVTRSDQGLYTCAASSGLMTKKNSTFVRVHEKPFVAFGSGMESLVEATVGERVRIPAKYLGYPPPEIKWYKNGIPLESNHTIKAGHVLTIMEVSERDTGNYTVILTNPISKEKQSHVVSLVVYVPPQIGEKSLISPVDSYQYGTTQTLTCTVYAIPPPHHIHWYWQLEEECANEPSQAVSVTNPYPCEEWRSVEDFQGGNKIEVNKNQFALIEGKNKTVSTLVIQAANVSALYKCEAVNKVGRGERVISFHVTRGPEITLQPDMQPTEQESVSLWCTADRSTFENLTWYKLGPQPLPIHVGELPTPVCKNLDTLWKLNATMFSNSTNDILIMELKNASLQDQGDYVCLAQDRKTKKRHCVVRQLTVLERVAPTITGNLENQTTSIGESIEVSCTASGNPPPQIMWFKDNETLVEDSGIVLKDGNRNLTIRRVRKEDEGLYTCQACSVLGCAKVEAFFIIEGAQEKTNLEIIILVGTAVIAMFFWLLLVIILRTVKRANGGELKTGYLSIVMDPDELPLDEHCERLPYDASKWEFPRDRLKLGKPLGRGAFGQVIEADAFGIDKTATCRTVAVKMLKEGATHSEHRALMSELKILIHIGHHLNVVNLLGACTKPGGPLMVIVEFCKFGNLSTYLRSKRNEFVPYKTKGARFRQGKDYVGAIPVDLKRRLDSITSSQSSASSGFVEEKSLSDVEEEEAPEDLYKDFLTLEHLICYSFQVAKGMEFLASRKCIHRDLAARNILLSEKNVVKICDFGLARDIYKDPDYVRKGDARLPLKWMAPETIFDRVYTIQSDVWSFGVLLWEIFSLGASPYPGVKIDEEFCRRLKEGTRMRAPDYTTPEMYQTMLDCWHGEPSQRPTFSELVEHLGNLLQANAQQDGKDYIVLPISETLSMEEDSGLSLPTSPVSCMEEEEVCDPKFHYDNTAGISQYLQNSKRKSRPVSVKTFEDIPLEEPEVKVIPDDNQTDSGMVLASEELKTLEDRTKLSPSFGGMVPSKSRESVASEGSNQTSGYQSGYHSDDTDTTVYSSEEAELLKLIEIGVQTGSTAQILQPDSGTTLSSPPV
Protocol: In vitro VEGFR‐2 kinase inhibitory assay
for their inhibitory activity against VEGFR‐2. Human BPS bioscience® VEGFR2 (KDR) Ki‐ nase Assay Kit (Enzyme‐Linked Immunosorbent Assay) was utilized in this test. The lu‐ minescent signal from the assay is correlated with the amount of ATP present and is in‐ versely correlated with the amount of kinase activity. The compounds were diluted to 100 μM in 10% DMSO and 5 ml of the diluted solution was added to a 50 ml reaction so that the final concentration of DMSO was 1% in all of reactions. All of the enzymatic reactions were conducted at 30 °C for 40 min. The 50 μl reaction mixture contains 40 μM Tris, pH 7.4, 10 μM MgCl2, 0.1 mg/ml BSA, 0.2 mg/ml Poly (Glu, Tyr) substrate, 10 μM ATP, and VEGFR‐2. After the enzymatic reaction, 50 ml of Kinase‐GloPlus Luminescence kinase as‐ say solution (Promega) was added to each reaction and the plate was incubated for 5 min at room temperature. Luminescence signal was measured using a BioTek Synergy 2 mi‐ croplate reader. The protein kinase assays used to determine IC50 values were performed using a ADP‐GloTM assay kit from Promega, which measures the generation of ADP by the protein kinase. Generation of ADP by the protein kinase reaction leads to an increase in luminescence signal in the presence of the ADP‐GloTM assay kit. The assay was started by incubating the reaction mixture in a 96‐well plate at 30 °C for 30 min. After the 30 mi n incubation period, the assay was terminated by the addition of 25 ml of ADP‐GloTM Re‐ agent (Promega). The 96‐well plate was shaken and then incubated for 40 min at ambient temperature; 50 ml of Kinase detection reagent was added, the 96‐well reaction plate wa s then read using the ADP‐Glo Luminescences Protocol on a GloMax plate reader (Promega: Catalog #E7031). The blank control was set up which included all the assay components, except the addition of appropriate substrates (replaced with equal volume of kinase assay buffer). The corrected activity for each protein kinase target was deter‐ mined by removing the blank control value. IC50 determination for inhibitor against VEGFR‐2 was estimated by generating a graph of log inhibitor vs normalized response with variables.

HepG2 cells = tested on: HepG2 cells; parameters: method as in PMID 29901131; details: HepG2 liver cancer cells; cited from earlier work

melting point | IC50 (VEGFR-2) | fold more potent than sunitinib, VEGFR-2 inhibition (VEGFR-2; ratio of IC50 to sunitinib) | SMILES | IC50 (HepG2 cell line; Homo sapiens, HepG2, MTT assay) | IC50 (MCF-7 cell line) | fold more potent than sunitinib, MCF-7 (MCF-7 cell line) | IC50 (HepG2 cell line; MTT assay) | phase of cell cycle arrest (HepG2 cells)
 |  |  | O=C1Nc2ccccc2/C1=N/c1ccc(C(=O)O)cc1 [Compound 3a] | 62.4 ± 2.61 µM | 51.6 ± 2.5 µM |  |  | 
 |  |  | O=C1Nc2ccc(F)cc2/C1=N/c1ccc(C(=O)O)cc1 [Compound 3b] | 51.2 ± 2.5 µM | 43.9 ± 2.1 µM |  |  | 
249 to 251 °C |  |  | CNC(=S)NNC(=O)c1ccc(N=C2C(=O)Nc3ccccc32)cc1 [Compound 5a, N-Methyl-2-(4-((2-oxoindolin-3-ylidene)amino)benzoyl)hydrazinecarbothioamide] | 5.48 ± 0.27 µM | 6.42 ± 0.55 µM |  |  | 
252 to 254 °C | 160 ± 8 nM |  | CNC(=S)NNC(=O)c1ccc(N=C2C(=O)Nc3ccc(F)cc32)cc1 [Compound 5b, 2-(4-((5-Fluoro-2-oxoindolin-3-ylidene)amino)benzoyl)-N-methylhydrazinecarbothioamide] | 2.62 ± 0.13 µM | 0.99 ± 0.04 µM | 5 fold |  | 
 |  |  | CCOC(=O)c1ccc(/N=C2\C(=O)Nc3ccccc32)cc1 [Compound 7a] | 10.9 ± 0.53 µM | 14.9 ± 0.7 µM |  |  | 
 |  |  | CCOC(=O)c1ccc(/N=C2\C(=O)Nc3ccc(F)cc32)cc1 [Compound 7b] | 2.23 ± 0.11 µM | 3.81 ± 0.2 µM |  |  | 
 |  |  | NNC(=O)c1ccc(/N=C2\C(=O)Nc3ccccc32)cc1 [Compound 8a] | 24.9 ± 1.21 µM | 27.2 ± 1.3 µM |  |  | 
 |  |  | NNC(=O)c1ccc(/N=C2\C(=O)Nc3ccc(F)cc32)cc1 [Compound 8b] | 53.9 ± 2.63 µM | 40.7 ± 2.8 µM |  |  | 
220 to 222 °C |  |  | O=C1Nc2ccccc2C1=Nc1ccc(C(=O)NN=Cc2ccc([N+](=O)[O-])cc2)cc1 [Compound 10a, N′-(4-Nitrobenzylidene)-4-((2-oxoindolin-3-ylidene)amino)benzohydrazide] | 8.24 ± 0.4 µM | 40 ± 2 µM |  |  | 
237 to 239 °C |  |  | O=C1Nc2ccccc2C1=Nc1ccc(C(=O)NN=Cc2ccc(Cl)cc2)cc1 [Compound 10b, N′-(4-Chlorobenzylidene)-4-((2-oxoindolin-3-ylidene)amino)benzohydrazide] | 33.8 ± 1.65 µM | 23.8 ± 1.21 µM |  |  | 
200 to 201 °C |  |  | O=C1Nc2ccccc2C1=Nc1ccc(C(=O)NN=Cc2cccc([N+](=O)[O-])c2)cc1 [Compound 10c, N′-(3-Nitrobenzylidene)-4-((2-oxoindolin-3-ylidene)amino)benzohydrazide] | 21 ± 1.02 µM | 14.6 ± 0.71 µM |  |  | 
234 to 236 °C |  |  | Cc1ccc(C=NNC(=O)c2ccc(N=C3C(=O)Nc4ccccc43)cc2)cc1 [Compound 10d, N′-(4-Methylbenzylidene)-4-((2-oxoindolin-3-ylidene)amino)benzohydrazide] | 21.4 ± 1.05 µM | 13.7 ± 0.4 µM |  |  | 
239 to 240 °C | 358 ± 19 nM |  | COc1ccc(C=NNC(=O)c2ccc(N=C3C(=O)Nc4ccccc43)cc2)cc1 [Compound 10e, N′-(4-Methoxybenzylidene)-4-((2-oxoindolin-3-ylidene)amino)benzohydrazide] | 8.81 ± 0.43 µM | 4.62 ± 0.2 µM |  |  | 
202 to 204 °C |  |  | CN(C)c1ccc(C=NNC(=O)c2ccc(N=C3C(=O)Nc4ccc(F)cc43)cc2)cc1 [Compound 10f, N′-(4-(Dimethylamino)benzylidene)-4-((5-fluoro-2-oxoindolin-3-ylidene)amino)benzohydrazide] | 19.2 ± 0.94 µM | 11 ± 0.59 µM |  |  | 
227 to 229 °C | 87 ± 4 nM | 1.6 fold | O=C1Nc2ccc(F)cc2C1=Nc1ccc(C(=O)NN=Cc2ccc(Br)cc2)cc1 [Compound 10g, N′-(4-Bromobenzylidene)-4-((5-fluoro-2-oxoindolin-3-ylidene)amino)benzohydrazide] | 2.79 ± 0.14 µM | 0.74 ± 0.03 µM | 6 fold |  | 
187 to 189 °C |  |  | O=C1Nc2ccccc2C1=Nc1ccc(C(=O)NN2C(=O)c3ccccc3C2=O)cc1 [Compound 12a, N-(1,3-Dioxoisoindolin-2-yl)-4-((2-oxoindolin-3-ylidene)amino)benzamide] | 130 ± 6.37 µM | 78.4 ± 3.81 µM |  |  | 
225 to 227 °C |  |  | O=C1Nc2ccc(F)cc2C1=Nc1ccc(C(=O)NN2C(=O)c3ccccc3C2=O)cc1 [Compound 12b, N-(1,3-Dioxoisoindolin-2-yl)-4-((5-fluoro-2-oxoindolin-3-ylidene)amino)benzamide] | 23.5 ± 1.15 µM | 33.8 ± 1.7 µM |  |  | 
206 to 208 °C |  |  | CCOC(=O)CC(C)=NNC(=O)c1ccc(N=C2C(=O)Nc3ccccc32)cc1 [Compound 14a, Ethyl 3-(2-(4-((2-oxoindolin-3-ylidene)amino)benzoyl)hydrazono)butanoate] | 10.3 ± 0.81 µM | 7.37 ± 0.4 µM |  |  | 
213 to 215 °C |  |  | CCOC(=O)CC(C)=NNC(=O)c1ccc(N=C2C(=O)Nc3ccc(F)cc32)cc1 [Compound 14b, Ethyl 3-(2-(4-((5-Fluoro-2-oxoindolin-3-ylidene)amino)benzoyl)hydrazono)butanoate] | 13.8 ± 0.67 µM | 32.9 ± 1.61 µM |  |  | 
219 to 220 °C | 180 ± 9 nM |  | O=C1Nc2ccccc2C1=Nc1ccc(-c2n[nH]c(=S)o2)cc1 [Compound 15a, 3-((4-(5-Thioxo-4,5-dihydro-1,3,4-oxadiazol-2-yl)phenyl)imino)indolin-2-one] | 2.3 ± 0.18 µM | 2.77 ± 0.1 µM |  | 2.3 ± 0.18 µM | 
231 to 233 °C |  |  | O=C1Nc2ccc(F)cc2C1=Nc1ccc(-c2n[nH]c(=S)o2)cc1 [Compound 15b, 5-Fluoro-3-((4-(5-thioxo-4,5-dihydro-1,3,4-oxadiazol-2-yl)phenyl)imino)indolin-2-one] | 12.7 ± 0.62 µM | 19.6 ± 1.8 µM |  |  | 
203 to 205 °C |  |  | O=C1Nc2ccc(F)cc2C1=Nc1ccc(C(=O)NNC(=S)Nc2ccccc2)cc1 [Compound 17b, 2-(4-((5-Fluoro-2-oxoindolin-3-ylidene)amino)benzoyl)-N-phenylhydrazinecarbothioamide] | 9.81 ± 0.48 µM | 25.8 ± 1.3 µM |  |  | 
 |  |  | CNC(=O)c1cc(Oc2ccc(NC(=O)Nc3ccc(Cl)c(C(F)(F)F)c3)cc2)ccn1 [Sorafenib] |  |  |  |  | S phase and G2/M phase
 |  |  | CCN(CC)CCNC(=O)c1c(C)[nH]c(/C=C2\C(=O)Nc3ccc(F)cc32)c1C [Sunitinib, reference compound] | 2.23 ± 0.11 µM | 4.77 ± 0.29 µM |  |  | 
